In ChEMBL document CHEMBL4308841, “Synthesis, in vitro antiproliferative activity, and kinase inhibitory effects of pyrazole-containing diarylureas and diarylamides” (Eur J Med Chem, 2018):

What was measured:
SR [1] = assay: Growth inhibition of human SR cells assessed as cell growth at 100 uM incubated for 48 hrs by sulforhodamine B assay relative to control; format: functional; conditions: read-out: Activity
ACHN = assay: Growth inhibition of human ACHN cells assessed as cell growth at 0.01 uM incubated for 48 hrs by sulforhodamine B assay relative to control; format: functional; conditions: read-out: Activity
PC-3 [2] = assay: Growth inhibition of human PC3 cells assessed as cell growth at 0.01 uM incubated for 48 hrs by sulforhodamine B assay relative to control; format: functional; conditions: PC-3, 48 h, read-out: Activity
HT-29 [3] = assay: Growth inhibition of human HT-29 cells incubated for 48 hrs by sulforhodamine B assay; format: functional, cell-based; conditions: HT-29, 48 h
SR [4] = assay: Growth inhibition of human SR cells assessed as cell growth at 0.01 uM incubated for 48 hrs by sulforhodamine B assay relative to control; format: functional; conditions: read-out: Activity
K562 [5] = assay: Growth inhibition of human K562 cells incubated for 48 hrs by sulforhodamine B assay; format: functional, cell-based; conditions: K562, 48 h
K562 [6] = assay: Growth inhibition of human K562 cells assessed as cell growth at 1 uM incubated for 48 hrs by sulforhodamine B assay relative to control; format: functional; conditions: K562, 48 h, read-out: Activity
A498 [7] = assay: Growth inhibition of human A498 cells incubated for 48 hrs by sulforhodamine B assay; format: functional, cell-based; conditions: A498, 48 h
OVCAR-4 [8] = assay: Growth inhibition of human OVCAR4 cells assessed as cell growth at 0.1 uM incubated for 48 hrs by sulforhodamine B assay relative to control; format: functional; conditions: OVCAR-4, 48 h, read-out: Activity
SF-268 = assay: Growth inhibition of human SF268 cells assessed as cell growth at 0.1 uM incubated for 48 hrs by sulforhodamine B assay relative to control; format: functional; conditions: SF-268, 48 h, read-out: Activity
OVCAR-5 = assay: Growth inhibition of human OVCAR5 cells assessed as cell growth at 100 uM incubated for 48 hrs by sulforhodamine B assay relative to control; format: functional; conditions: OVCAR-5, 48 h, read-out: Activity
SN12C = assay: Growth inhibition of human SN12C cells assessed as cell growth at 0.01 uM incubated for 48 hrs by sulforhodamine B assay relative to control; format: functional; conditions: read-out: Activity
HOP-62 [9] = assay: Growth inhibition of human HOP62 cells incubated for 48 hrs by sulforhodamine B assay; format: functional, cell-based; conditions: HOP-62, 48 h
A549 [10] = assay: Growth inhibition of human A549/ATCC cells assessed as cell growth at 100 uM incubated for 48 hrs by sulforhodamine B assay relative to control; format: functional; conditions: A549, 48 h, read-out: Activity
A498 [11] = assay: Growth inhibition of human A498 cells assessed as cell growth at 1 uM incubated for 48 hrs by sulforhodamine B assay relative to control; format: functional; conditions: A498, 48 h, read-out: Activity
SK-MEL-5 = assay: Growth inhibition of human SK-MEL-5 cells assessed as cell growth at 0.01 uM incubated for 48 hrs by sulforhodamine B assay relative to control; format: functional; conditions: SK-MEL-5, 48 h, read-out: Activity
NCI-H23 = assay: Growth inhibition of human NCI-H23 cells assessed as cell growth at 0.01 uM incubated for 48 hrs by sulforhodamine B assay relative to control; format: functional; conditions: NCI-H23, 48 h, read-out: Activity
MDA-MB-231 [12] = assay: Growth inhibition of human MDA-MB-231 cells assessed as cell growth at 0.1 uM incubated for 48 hrs by sulforhodamine B assay relative to control; format: functional; conditions: MDA-MB-231, 48 h, read-out: Activity
HOP-62 [13] = assay: Growth inhibition of human HOP62 cells assessed as cell growth at 0.01 uM incubated for 48 hrs by sulforhodamine B assay relative to control; format: functional; conditions: HOP-62, 48 h, read-out: Activity
HT-29 [14] = assay: Growth inhibition of human HT-29 cells assessed as cell growth at 0.1 uM incubated for 48 hrs by sulforhodamine B assay relative to control; format: functional; conditions: HT-29, 48 h, read-out: Activity
OVCAR-8 = assay: Growth inhibition of human OVCAR8 cells assessed as cell growth at 100 uM incubated for 48 hrs by sulforhodamine B assay relative to control; format: functional; conditions: OVCAR-8, 48 h, read-out: Activity
NCI-H226 = assay: Growth inhibition of human NCI-H226 cells assessed as cell growth at 1 uM incubated for 48 hrs by sulforhodamine B assay relative to control; format: functional; conditions: NCI-H226, 48 h, read-out: Activity
OVCAR-4 [15] = assay: Growth inhibition of human OVCAR4 cells assessed as cell growth at 1 uM incubated for 48 hrs by sulforhodamine B assay relative to control; format: functional; conditions: OVCAR-4, 48 h, read-out: Activity
Malme-3M = assay: Growth inhibition of human MALME-3M cells assessed as cell growth at 100 uM incubated for 48 hrs by sulforhodamine B assay relative to control; format: functional; conditions: read-out: Activity
A549 [16] = assay: Growth inhibition of human A549/ATCC cells assessed as cell growth at 0.01 uM incubated for 48 hrs by sulforhodamine B assay relative to control; format: functional; conditions: A549, 48 h, read-out: Activity
OVCAR-3 = assay: Growth inhibition of human OVCAR3 cells assessed as cell growth at 100 uM incubated for 48 hrs by sulforhodamine B assay relative to control; format: functional; conditions: OVCAR-3, 48 h, read-out: Activity
PC-3 [17] = assay: Growth inhibition of human PC3 cells incubated for 48 hrs by sulforhodamine B assay; format: functional, cell-based; conditions: PC-3, 48 h
MDA-MB-231 [18] = assay: Growth inhibition of human MDA-MB-231 cells assessed as cell growth at 1 uM incubated for 48 hrs by sulforhodamine B assay relative to control; format: functional; conditions: MDA-MB-231, 48 h, read-out: Activity
SK-OV-3 = assay: Growth inhibition of human SKOV3 cells assessed as cell growth at 1 uM incubated for 48 hrs by sulforhodamine B assay relative to control; format: functional; conditions: SK-OV-3, 48 h, read-out: Activity
KM12 = assay: Growth inhibition of human KM12 cells assessed as cell growth at 1 uM incubated for 48 hrs by sulforhodamine B assay relative to control; format: functional; conditions: KM12, 48 h, read-out: Activity
LOX IMVI = assay: Growth inhibition of human LOXIMVI cells assessed as cell growth at 1 uM incubated for 48 hrs by sulforhodamine B assay relative to control; format: functional; conditions: read-out: Activity
[19] = read-out: LC50 (the source's name)
[20] = read-out: pLC50 (the source's name) (converted)

## COc1cc(Cl)cc(-c2nn(-c3cccc(NC(=O)c4cccc(C(F)(F)F)c4)c3)cc2-c2ccncc2)c1
SR [1]
  growth at 100 µM: 15%
ACHN
  growth at 0.01 µM: 98%
PC-3 [2]
  growth at 0.01 µM: 94%
HT-29 [3]; read-out: GI50
  GI50: 3.37 µM
HT-29 [3]; [19]
  CC50: > 100 µM
HT-29 [3]; read-out: TGI
  TGI: > 100 µM
HT-29 [3]; read-out: pGI50 (converted)
  GI50: 3.39 µM
HT-29 [3]; [20]
  CC50: > 100 µM
HT-29 [3]; read-out: pTGI (converted)
  TGI: > 100 µM
SR [4]
  growth at 0.01 µM: 57%
K562 [5]; read-out: GI50
  GI50: 4.59 µM
K562 [5]; read-out: LC50
  LC50: > 100 µM
K562 [5]; read-out: TGI
  TGI: > 100 µM
K562 [5]; read-out: pGI50 (converted)
  GI50: 4.68 µM
K562 [5]; read-out: pLC50 (converted)
  LC50: > 100 µM
K562 [5]; read-out: pTGI (converted)
  TGI: > 100 µM
K562 [6]
  growth at 1 µM: 90%
A498 [7]; [19]
  CC50: > 100 µM
A498 [7]; read-out: TGI
  TGI: > 100 µM
A498 [7]; [20]
  CC50: > 100 µM
A498 [7]; read-out: pTGI (converted)
  TGI: > 100 µM
OVCAR-4 [8]
  growth at 0.1 µM: 95%
SF-268
  growth at 0.1 µM: 100%
OVCAR-5
  growth at 100 µM: 59%
SN12C
  growth at 0.01 µM: 99%
HOP-62 [9]; read-out: GI50
  GI50: > 100 µM
HOP-62 [9]; [19]
  CC50: > 100 µM
HOP-62 [9]; read-out: TGI
  TGI: > 100 µM
HOP-62 [9]; read-out: pGI50 (converted)
  GI50: > 100 µM
HOP-62 [9]; [20]
  CC50: > 100 µM
HOP-62 [9]; read-out: pTGI (converted)
  TGI: > 100 µM
A549 [10]
  growth at 100 µM: 30%
A498 [11]
  growth at 1 µM: 51%
SK-MEL-5
  growth at 0.01 µM: 97%
NCI-H23
  growth at 0.01 µM: 93%
MDA-MB-231 [12]
  growth at 0.1 µM: 90%
HOP-62 [13]
  growth at 0.01 µM: 104%
HT-29 [14]
  growth at 0.1 µM: 93%
OVCAR-8
  growth at 100 µM: 41%
NCI-H226
  growth at 1 µM: 54%
OVCAR-4 [15]
  growth at 1 µM: 97%
Malme-3M
  growth at 100 µM: 55%
A549 [16]
  growth at 0.01 µM: 98%
OVCAR-3
  growth at 100 µM: 38%
PC-3 [17]
  IC50: 2.71 µM
PC-3 [17]; read-out: GI50
  GI50: 2.71 µM
PC-3 [17]; [19]
  CC50: > 100 µM
PC-3 [17]; read-out: TGI
  TGI: > 100 µM
PC-3 [17]; read-out: pGI50 (converted)
  GI50: 2.69 µM
PC-3 [17]; [20]
  CC50: > 100 µM
PC-3 [17]; read-out: pTGI (converted)
  TGI: > 100 µM
MDA-MB-231 [18]
  growth at 1 µM: 58%
SK-OV-3
  growth at 1 µM: 99%
KM12
  growth at 1 µM: 56%
LOX IMVI
  growth at 1 µM: 88%
